Consider 20 compounds from PMC8081376 (Mutagenesis, 2020).

≈ marks a conversion by molar mass, not a printed value. Counter-ions that a name gives are not always drawn. Like-named read-outs stand apart in the source and are kept apart here.

The test system of data set [1] is Phenion®FT Skin Models.
The test system of data set [2] is Phenion®FT Skin Models (keratinocytes and fibroblasts).
Data set [3] is described as follows: Solubility in vehicle and precipitation on the skin. Particulars: for Top dose limited by solubility in acetone: acetone vehicle. In kind it is physicochemical.

Consider `Nc1nc[nH]n1` [Amitrole], for which the “Dose tested without cytotoxicity exceeding the cut-off” value in data set [1] (human) stood at 1600 µg/cm^2. In data set [2], the “Effect on % tail DNA / DNA migration in APC experiment” value was “small but statistically significant increase in DNA migration was observed at several doses”, the “Effect on % tail DNA / DNA migration in standard experiment” value is “no observed cytotoxicity outside the cut-off limits or increases in DNA damage” and the “RS Comet assay overall classification” value is given as “negative”.
Consider `CN(C)N=O` [DMNA, dimethylnitrosamine], for which the “RS Comet assay overall classification” value in data set [2] was “negative”.
With `Cc1cn([C@H]2C[C@H](N=[N+]=[N-])[C@@H](CO)O2)c(=O)[nH]c1=O` [AZT, Azidothymidine], the “Dose producing signs of strong cytotoxicity that limited the top dose” value in data set [1] (human) was found to be 700 µg/cm^2. Also, in data set [2], the “Cell type(s) with increased DNA migration” value is “increased in both cell types”; the “Effect on % tail DNA / DNA migration in standard experiment” value is “strong dose-dependent increase in % tail DNA in keratinocytes and fibroblasts”; the “RS Comet assay overall classification” value was “positive”.
With `CC1(C)S[C@@H]2[C@H](NC(=O)[C@H](N)c3ccccc3)C(=O)N2[C@H]1C(=O)O` [Ampicillin sodium salt], in data set [2], the “Effect on % tail DNA / DNA migration in standard experiment” value is on record as “small but statistically significant increase in DNA migration was seen in fibroblasts only at the high dose” and the “RS Comet assay overall classification” value was “negative”.
`C1=Cc2cc3cccc4ccc5ccc1c2c5c43` [CPPE, Cyclopenta[c,d]pyrene]: the “Dose producing signs of strong cytotoxicity that limited the top dose” value in data set [1] was found to be 75 µg/cm^2. For the same compound, in data set [2], the “Cell type(s) with increased DNA migration” value was “keratinocytes only”, the “Dependence of the result on APC” value is “detected in the presence of APC only”, the “Effect on % tail DNA / DNA migration in APC experiment” value is listed as “significant increase in % tail DNA was observed in the absence of limiting cytotoxicity at four of the top five doses tested in the keratinocytes” and the “Effect on % tail DNA / DNA migration in standard experiment” value is “DNA migration was not increased in either cell type”. Further, the “RS Comet assay overall classification” value in data set [2] is given as “positive”.
As for `CC(=O)Nc1ccc2c(c1)Cc1ccccc1-2` [2-AAF, 2-acetylaminofluorene], in data set [1] (human), the “Dose(s) exceeding the cytotoxicity limit in main or APC experiments” value (from here on “Dose(s) exceeding the cytotoxicity limit”) was 80 µg/cm^2. Moreover, the “Doses with precipitation on the tissue surface” value in data set [3] (visual inspection, at cell harvest) is given as at least 128 µg/cm^2. In data set [2], the “Cell type(s) with increased DNA migration” value was “increased in both cell types”, the “Dependence of the result on APC” value is recorded as “detected in the presence of APC only”, the “Effect on % tail DNA / DNA migration in APC experiment” value is reported as “significant increase in DNA migration at all doses tested” and the “Effect on % tail DNA / DNA migration in standard experiment” value was “no increase in DNA migration was observed”. Moreover, the “RS Comet assay overall classification” value in data set [2] is “positive”. Also, in data set [2] (human), the “Dose(s) with statistically significant increase in % tail DNA, keratinocytes” value was 80 µg/cm^2.
Take `CCCCCl` [N-butyl chloride]: in data set [1], the “Dose tested without cytotoxicity exceeding the cut-off” value is reported as 1600 µg/cm^2. Besides, in data set [2], the “Dose with statistically significant increase in DNA migration, keratinocytes” value is reported as 400 µg/cm^2; the “Effect on % tail DNA / DNA migration in APC experiment” value is on record as “did not show any significant increases in DNA migration”; the “RS Comet assay overall classification” value is reported as “negative”.
On to `Cc1c(N)cccc1N` [2,6-DAT, 2,6-diaminotoluene], for which, in data set [1] (human), the “Dose producing signs of strong cytotoxicity that limited the top dose” value was 800 µg/cm^2 and the “Dose(s) exceeding the cytotoxicity limit” value was at least 160 µg/cm^2. In addition, in data set [2], the “Effect on % tail DNA / DNA migration in standard experiment” value is “did not increase the DNA migration” and the “RS Comet assay overall classification” value is recorded as “negative”.
In the case of `CCOS(C)(=O)=O` [EMS, Ethyl methanesulfonate], the “Dose producing signs of strong cytotoxicity that limited the top dose” value in data set [1] (human) came to 200 µg/cm^2. Further, in data set [2], the “Cell type(s) with increased DNA migration” value is recorded as “increased in both cell types”; the “Effect on % tail DNA / DNA migration in standard experiment” value is “clear and dose-dependent increase in % tail DNA in both cell types”; the “RS Comet assay overall classification” value was “positive”.
As for `COS(C)(=O)=O` [MMS, methyl methane sulfonate], in data set [2], the “Positive control response in standard experiments” value is given as “clear induction of DNA migration”.
For the compound `CC(C)(C)c1cc(O)ccc1O` [TBHQ, Tert-butylhydroquinone], in data set [1] (human), the “Dose producing signs of strong cytotoxicity that limited the top dose” value came out at 40 µg/cm^2 and the “Dose(s) exceeding the cytotoxicity limit” value amounted to 20 µg/cm^2. In addition, in data set [2], the “Effect on % tail DNA / DNA migration in APC experiment” value is on record as “small but statistically significant increase in DNA migration at the two highest doses in fibroblasts only”, the “Effect on % tail DNA / DNA migration in standard experiment” value is listed as “Moderate increases in % tail DNA were observed in this experiment but only at the two highest doses that both exceeded the cytotoxicity limit”, the “Expert call of the performing laboratory in the coded phase” value is “equivocal” and the “RS Comet assay overall classification” value is on record as “negative”. The “Dose(s) with statistically significant increase in DNA migration, fibroblasts” value in data set [2] (human) is on record as 16 µg/cm^2.
Turning to `c1ccc2c(c1)cc1ccc3cccc4ccc2c1c34` [BaP, benzo[a]pyrene], the “Dose tested without cytotoxicity exceeding the cut-off” value in data set [1] (human) came to 160 µg/cm^2. In addition, the solubility (commonly the dissolved amount per volume that the medium holds) in data set [3] (acetone) stood at 10000 µg/mL (≈ 39.6 mM). For the same compound, in data set [3], the “Top dose limited by solubility in acetone” value is 160 µg/cm^2.
For the compound `O=C1CCCCC1` [Cyclohexanone], the “Dependence of the result on APC” value in data set [2] is on record as “positive or equivocal results in the presence of APC only”.
`OC[C@@H](O)[C@@H](O)[C@H](O)[C@H](O)CO` [D-Mannitol, D-mannitol]: the “Top dose limited by solubility in acetone” value in data set [3] is reported as 320 µg/cm^2. In addition, in data set [2], the “Effect on % tail DNA / DNA migration in APC experiment” value was “did not significantly increase DNA migration”, the “Effect on % tail DNA / DNA migration in standard experiment” value is “no increase in DNA migration was observed at any dose” and the “RS Comet assay overall classification” value was “negative”.
As to `COc1cc([C@@H]2c3cc4c(cc3[C@@H](O[C@@H]3O[C@@H]5CO[C@@H](C)O[C@H]5[C@H](O)[C@H]3O)[C@H]3COC(=O)[C@H]23)OCO4)cc(OC)c1O` [Etoposide], the “Dose producing signs of strong cytotoxicity that limited the top dose” value in data set [1] (human) was over 120 µg/cm^2.
With `O=P1(N(CCCl)CCCl)NCCCO1` (centres unmarked) [CP, Cyclophosphamide], the “Dose producing signs of strong cytotoxicity that limited the top dose” value in data set [1] (human) was determined as 1200 µg/cm^2. Also, in data set [2], the “Cell type(s) with increased DNA migration” value is given as “increased in both cell types”, the “Effect on % tail DNA / DNA migration in standard experiment” value is on record as “dose-dependent increase in % tail DNA in both cell types” and the “RS Comet assay overall classification” value is reported as “positive”.
Regarding `Cc1ccc(N)cc1N` [2,4-DAT, 2,4-diaminotoluene], in data set [1] (human), the “Dose producing signs of strong cytotoxicity that limited the top dose” value was determined as 1280 µg/cm^2 and the “Dose(s) exceeding the cytotoxicity limit” value was determined as 1200 µg/cm^2. In data set [2], the “Effect on % tail DNA / DNA migration in standard experiment” value is given as “did not increase the % tail DNA of either cell type” and the “RS Comet assay overall classification” value is reported as “negative”.
`C[C@@]1(CO)[C@H](O)CC[C@@]2(C)[C@H]1CC[C@H]1C[C@@H]3C[C@@]12CC[C@]3(O)CO` [APC, aphidicolin]: the “Effect on background DNA damage (SC + APC vs SC)” value in data set [2] is “no major impact on the background DNA damage”.
`Cc1c2ccccc2c(C)c2c1ccc1ccccc12` [DMBA, 7,12-dimethylbenz[a]anthracene]: the “Dependence of the result on APC” value in data set [2] is recorded as “detected in the presence of APC only”.
As to `O=[N+]([O-])c1ccc(O)cc1` [4-Nitrophenol], in data set [1] (human), the “Dose producing signs of strong cytotoxicity that limited the top dose” value is reported as 48 µg/cm^2 and the “Dose tested without cytotoxicity exceeding the cut-off” value was 32 µg/cm^2. For the same compound, in data set [2], the “Effect on % tail DNA / DNA migration in standard experiment” value is recorded as “statistically significant increase in % tail DNA was observed in keratinocytes only at the two lowest doses” and the “RS Comet assay overall classification” value was “negative”.
